Measured values published in patent US10000791B2, “Measurement method for human pancreatic lipase activity” (ASAHI KASEI PHARMA CORPORATION, priority 2013, dated 2018).

Tested on: human pancreatic lipase
Assay: lipase activity measured in control, normal and heparin-administered samples with each reagent (1,2-dioleoyl glycerol, UV method; Liquitech Lipase Color II for verification)
Type: biochemical
Set-up: lipase activity relative to (1) comparative example NaDCA (Table 1): concentration or dose not given beside the values
Details: for lipase activity (Table 1): NaDCA pH 8.15, other bile salts pH 7.0; for lipase activity (Table 2): comparative example pH 8.15, present example pH 7.1, bile acid 40 mmol/L in R-1

C[C@H](CCC(=O)NCC(=O)[O-])[C@H]1CC[C@H]2[C@@H]3[C@H](O)C[C@@H]4C[C@H](O)CC[C@]4(C)[C@H]3CC[C@]12C.[Na+] [NaGCDCA, sodium glycochenodeoxycholate]
sensitivity at pH 7.95 compared with pH 7.0 (NaGCDCA 40 mmol/L in R-1): about 40% | lipase activity (Table 1) (Normal sample 1): 38.1 U/L | lipase activity relative to (1) comparative example NaDCA (Table 1) (Normal sample 1, pH 7.0): 97.5% | lipase activity (Table 1) (Normal sample 2): 75.6 U/L | lipase activity relative to (1) comparative example NaDCA (Table 1) (Normal sample 2, pH 7.0): 79.5% | lipase activity (Table 1) (Normal sample 3): 41.2 U/L | lipase activity relative to (1) comparative example NaDCA (Table 1) (Normal sample 3, pH 7.0): 88.4% | lipase activity (Table 1) (Normal sample 4): 31.7 U/L | lipase activity relative to (1) comparative example NaDCA (Table 1) (Normal sample 4, pH 7.0): 73.0% | lipase activity (Table 1) (Normal sample 5): 28.8 U/L | lipase activity relative to (1) comparative example NaDCA (Table 1) (Normal sample 5, pH 7.0): 70.8% | lipase activity (Table 1) (sample Heparin 1): 30.8 U/L | lipase activity (Table 2) (sample Heparin 1): 47.8 U/L | lipase activity relative to (1) comparative example NaDCA (Table 1) (sample Heparin 1, pH 7.0): 40.1% | lipase activity (Table 1) (sample Heparin 2): 41.3 U/L | lipase activity (Table 2) (sample Heparin 2): 25.9 U/L | lipase activity relative to (1) comparative example NaDCA (Table 1) (sample Heparin 2, pH 7.0): 47.6% | lipase activity (Table 1) (sample Heparin 3): 29.8 U/L | lipase activity (Table 2) (sample Heparin 3): 44.0 U/L | lipase activity relative to (1) comparative example NaDCA (Table 1) (sample Heparin 3, pH 7.0): 26.4% | lipase activity (Table 1) (sample Heparin 4): 31.6 U/L | lipase activity relative to (1) comparative example NaDCA (Table 1) (sample Heparin 4, pH 7.0): 31.2% | lipase activity (Table 1) (sample Heparin 5): 17.8 U/L | lipase activity relative to (1) comparative example NaDCA (Table 1) (sample Heparin 5, pH 7.0): 26.0% | lipase activity (Table 1) (sample Heparin 6): 22.5 U/L | lipase activity relative to (1) comparative example NaDCA (Table 1) (sample Heparin 6, pH 7.0): 32.5% | lipase activity (Table 1) (sample Heparin 7): 51.0 U/L | lipase activity relative to (1) comparative example NaDCA (Table 1) (sample Heparin 7, pH 7.0): 36.9% | lipase activity (Table 1) (sample Heparin 8): 36.6 U/L | lipase activity relative to (1) comparative example NaDCA (Table 1) (sample Heparin 8, pH 7.0): 29.0% | lipase activity (Table 1) (sample Heparin 9): 75.4 U/L | lipase activity relative to (1) comparative example NaDCA (Table 1) (sample Heparin 9, pH 7.0): 44.7% | lipase activity (Table 5) (sample Heparin 31, pH 7.0): 40.7 U/L | lipase activity (Table 5) (sample Heparin 31, pH 7.95): 60.7 U/L | lipase activity (Table 5) (sample Heparin 32, pH 7.0): 32.7 U/L | lipase activity (Table 5) (sample Heparin 32, pH 7.95): 77.0 U/L | lipase activity (Table 1) (sample PRECINORM): 42.3 U/L | lipase activity (Table 5) (sample PRECINORM, pH 7.0): 42.3 U/L | lipase activity relative to (1) comparative example NaDCA (Table 1) (sample PRECINORM, pH 7.0): 82.9% | lipase activity (Table 5) (sample PRECINORM, pH 7.95): 24.0 U/L | lipase activity (Table 1) (sample PRECIPATH): 109.9 U/L | lipase activity (Table 5) (sample PRECIPATH, pH 7.0): 109.9 U/L | lipase activity relative to (1) comparative example NaDCA (Table 1) (sample PRECIPATH, pH 7.0): 85.9% | lipase activity (Table 5) (sample PRECIPATH, pH 7.95): 57.3 U/L | lipase activity (Table 5) (sample Pool 1, pH 7.0): 36.9 U/L | lipase activity (Table 5) (sample Pool 1, pH 7.95): 19.4 U/L | lipase activity (Table 5) (sample Pool 2, pH 7.0): 17.5 U/L | lipase activity (Table 5) (sample Pool 2, pH 7.95): 15.4 U/L | lipase activity (Table 5) (sample Seraclear LP, pH 7.0): 17.5 U/L | lipase activity (Table 5) (sample Seraclear LP, pH 7.95): 7.5 U/L
